Measurements taken from ChEMBL document CHEMBL3797064, “An evaluation of synthetic indole derivatives as inhibitors of monoamine oxidase” (Bioorg Med Chem Lett, 2016).

Assays:
[1] = molecular target: T1, Amine oxidase [flavin-containing] A (Homo sapiens, UniProt P21397); assay: Inhibition of human recombinant MAO-A using kynuramine as substrate incubated for 20 mins by fluorescence spectrophotometric analysis
T1 sequence (P21397 whole entry): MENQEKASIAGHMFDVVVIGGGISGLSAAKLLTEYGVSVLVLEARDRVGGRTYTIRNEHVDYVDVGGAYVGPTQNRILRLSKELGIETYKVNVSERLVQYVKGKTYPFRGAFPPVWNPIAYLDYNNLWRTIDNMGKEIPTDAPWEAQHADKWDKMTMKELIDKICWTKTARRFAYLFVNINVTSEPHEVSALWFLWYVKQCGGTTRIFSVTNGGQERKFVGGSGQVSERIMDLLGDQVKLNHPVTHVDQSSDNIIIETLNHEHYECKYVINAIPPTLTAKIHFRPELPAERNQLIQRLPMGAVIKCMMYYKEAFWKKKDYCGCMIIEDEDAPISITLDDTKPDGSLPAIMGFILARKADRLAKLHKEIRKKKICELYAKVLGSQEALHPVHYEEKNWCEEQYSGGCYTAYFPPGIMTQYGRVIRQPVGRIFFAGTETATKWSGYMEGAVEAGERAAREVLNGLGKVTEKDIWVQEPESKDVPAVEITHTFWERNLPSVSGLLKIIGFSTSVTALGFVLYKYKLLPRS

[2] = molecular target: T2, Amine oxidase [flavin-containing] B (Homo sapiens, UniProt P27338); assay: Inhibition of human recombinant MAO-B using kynuramine as substrate incubated for 20 mins by fluorescence spectrophotometric analysis
T2 sequence (P27338 whole entry): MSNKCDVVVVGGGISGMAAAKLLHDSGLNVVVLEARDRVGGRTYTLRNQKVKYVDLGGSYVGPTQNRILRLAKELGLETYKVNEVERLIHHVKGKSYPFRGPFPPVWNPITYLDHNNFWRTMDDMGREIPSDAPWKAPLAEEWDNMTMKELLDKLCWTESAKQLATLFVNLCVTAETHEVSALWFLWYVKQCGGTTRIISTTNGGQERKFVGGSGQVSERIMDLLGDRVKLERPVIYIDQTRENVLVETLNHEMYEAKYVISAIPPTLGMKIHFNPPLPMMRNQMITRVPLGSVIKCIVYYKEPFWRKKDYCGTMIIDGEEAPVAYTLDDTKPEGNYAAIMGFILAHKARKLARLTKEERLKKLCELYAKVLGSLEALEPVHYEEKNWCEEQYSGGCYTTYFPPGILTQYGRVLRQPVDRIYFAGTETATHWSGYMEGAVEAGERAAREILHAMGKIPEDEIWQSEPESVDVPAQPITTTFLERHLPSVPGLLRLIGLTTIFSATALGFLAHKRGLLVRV

[3] = species: Homo sapiens; assay: Selectivity index, ratio of IC50 for human recombinant MAO-B to IC50 for human recombinant MAO-A

An IC50 [1] of over 100 µM, an IC50 [2] of 83.1 µM and a Ratio IC50 [3] of under 0.83 were found for `O=C1NC(=O)c2cc3c(cc21)cc(-c1ccccc1)n3O` in this work.
An IC50 [1] of 0.25 µM, an IC50 [2] of over 100 µM and a Ratio IC50 [3] of over 400 were found for `O=C1NC(=O)c2cc3c(Cl)c(-c4ccccc4)[nH]c3cc21` in this work.
An IC50 [1] of 1.16 µM, an IC50 [2] of 8.09 µM and a Ratio IC50 [3] of 7 were found for `Cc1ccc(-c2cc3cc4c(cc3n2O)C(=O)NC4=O)cc1` in this work.
An IC50 [1] of 2.08 µM, an IC50 [2] of 1.94 µM and a Ratio IC50 [3] of 0.93 were found for `CC(=O)On1c(-c2cccs2)cc2cc(C#N)c(C#N)cc21` in this work.
An IC50 [1] of 4.99 µM, an IC50 [2] of over 100 µM and a Ratio IC50 [3] of over 20 were found for `COn1c(-c2ccccc2)c(CO)c2cc(C#N)c(C#N)cc21` in this work.
An IC50 [1] of 6.12 µM, an IC50 [2] of over 100 µM and a Ratio IC50 [3] of over 16 were found for `O=C(Cc1cc2c(cc1[N+](=O)[O-])C(=O)NC2=O)c1cccs1` in this work.
An IC50 [1] of over 100 µM and an IC50 [2] of over 100 µM were found for `COc1ccc(C(=O)Cc2cc(C(=O)O)c(C(=O)O)cc2[N+](=O)[O-])cc1` in this work.
An IC50 [1] of 6.7 µM, an IC50 [2] of 3.75 µM and a Ratio IC50 [3] of 0.56 were found for `COn1c(-c2cccs2)cc2cc3c(cc21)C(=O)NC3=O` in this work.
An IC50 [1] of over 100 µM and an IC50 [2] of over 100 µM were found for `COn1c(-c2ccccc2)c(Br)c2cc(C#N)c(C#N)cc21` in this work.
An IC50 [1] of 5.12 µM, an IC50 [2] of over 100 µM and a Ratio IC50 [3] of over 20 were found for `COn1c(-c2ccc(C)cc2)c(CO)c2cc(C#N)c(C#N)cc21` in this work.
An IC50 [1] of over 100 µM and an IC50 [2] of over 100 µM were found for `O=C(O)c1cc2cc(-c3cccs3)n(O)c2cc1C(=O)O` in this work.
An IC50 [1] of 1.24 µM, an IC50 [2] of over 100 µM and a Ratio IC50 [3] of over 81 were found for `COn1c(-c2ccccc2)cc2cc3c(cc21)C(=O)N(C)C3=O` in this work.
An IC50 [1] of over 100 µM and an IC50 [2] of over 100 µM were found for `O=C(Cc1cc(C(=O)O)c(C(=O)O)cc1[N+](=O)[O-])c1cccs1` in this work.
An IC50 [1] of 1.13 µM, an IC50 [2] of over 100 µM and a Ratio IC50 [3] of over 88 were found for `COc1ccc(-c2c(CO)c3cc(C#N)c(C#N)cc3n2OC)cc1` in this work.
An IC50 [1] of 19 µM, an IC50 [2] of over 100 µM and a Ratio IC50 [3] of over 5.3 were found for `COC(=O)c1cc2cc(-c3ccc(OC)cc3)n(OC)c2cc1C(=O)OC` in this work.
An IC50 [1] of over 100 µM, an IC50 [2] of 7.46 µM and a Ratio IC50 [3] of under 0.075 were found for `COn1c(-c2ccc(C)cc2)c(Br)c2cc(C#N)c(C#N)cc21` in this work.
An IC50 [1] of 11.1 µM, an IC50 [2] of over 100 µM and a Ratio IC50 [3] of over 9 were found for `N#Cc1cc2cc(-c3cccs3)n(O)c2cc1C#N` in this work.
An IC50 [1] of 5.51 µM, an IC50 [2] of over 100 µM and a Ratio IC50 [3] of over 18 were found for `COc1ccc(C(=O)Cc2cc3c(cc2[N+](=O)[O-])C(=O)N(Cc2ccccc2)C3=O)cc1` in this work.
An IC50 [1] of over 100 µM and an IC50 [2] of over 100 µM were found for `COc1ccc(-c2cc3cc(C(=O)O)c(C(=O)O)cc3n2O)cc1` in this work.
An IC50 [1] of over 100 µM and an IC50 [2] of over 100 µM were found for `Cc1ccc(-c2cc3cc(C(=O)O)c(C(=O)O)cc3n2O)cc1` in this work.
An IC50 [1] of 5.38 µM, an IC50 [2] of 6.79 µM and a Ratio IC50 [3] of 1.3 were found for `O=C(Cc1cc2c(cc1[N+](=O)[O-])C(=O)NC2=O)c1ccccc1` in this work.
An IC50 [1] of 0.147 µM, an IC50 [2] of over 100 µM and a Ratio IC50 [3] of over 680 were found for `COc1ccc(-c2c(C=O)c3cc(C#N)c(C#N)cc3n2OC)cc1` in this work.
An IC50 [1] of over 100 µM and an IC50 [2] of over 100 µM were found for `O=C(Cc1cc(C(=O)O)c(C(=O)O)cc1[N+](=O)[O-])c1ccccc1` in this work.
An IC50 [1] of 1.84 µM, an IC50 [2] of 1.79 µM and a Ratio IC50 [3] of 0.97 were found for `COc1ccc(-c2cc3cc(C#N)c(C#N)cc3n2O)cc1` in this work.
An IC50 [1] of 1.14 µM, an IC50 [2] of 0.821 µM and a Ratio IC50 [3] of 0.72 were found for `Cc1ccc(-c2cc3cc(C#N)c(C#N)cc3n2O)cc1` in this work.
An IC50 [1] of 0.522 µM, an IC50 [2] of over 100 µM and a Ratio IC50 [3] of over 192 were found for `COn1c(-c2ccccc2)c(C=O)c2cc(C#N)c(C#N)cc21` in this work.
An IC50 [1] of 6.92 µM, an IC50 [2] of 10.3 µM and a Ratio IC50 [3] of 1.5 were found for `N#Cc1cc2cc(-c3ccccc3)n(O)c2cc1C#N` in this work.
An IC50 [1] of over 100 µM and an IC50 [2] of over 100 µM were found for `Cc1ccc(C(=O)Cc2cc(C(=O)O)c(C(=O)O)cc2[N+](=O)[O-])cc1` in this work.
An IC50 [1] of 23.3 µM, an IC50 [2] of 56.2 µM and a Ratio IC50 [3] of 2.4 were found for `O=C(O)c1cc2cc(-c3ccccc3)n(O)c2cc1C(=O)O` in this work.
An IC50 [1] of 0.405 µM, an IC50 [2] of 74.8 µM and a Ratio IC50 [3] of 185 were found for `COn1c(-c2ccc(C)cc2)c(C=O)c2cc(C#N)c(C#N)cc21` in this work.
An IC50 [1] of 6.35 µM, an IC50 [2] of over 100 µM and a Ratio IC50 [3] of over 16 were found for `O=C1NC(=O)c2cc3c(cc21)cc(-c1cccs1)n3O` in this work.
An IC50 [1] of 1.75 µM, an IC50 [2] of 0.581 µM and a Ratio IC50 [3] of 0.33 were found for `COn1c(-c2ccc(C)cc2)cc2cc3c(cc21)C(=O)NC3=O` in this work.
An IC50 [1] of 2.11 µM, an IC50 [2] of 0.923 µM and a Ratio IC50 [3] of 0.44 were found for `Cc1ccc(C(=O)Cc2cc3c(cc2[N+](=O)[O-])C(=O)NC3=O)cc1` in this work.
An IC50 [1] of 0.661 µM, an IC50 [2] of 1.21 µM and a Ratio IC50 [3] of 1.8 were found for `COc1ccc(C(=O)Cc2cc3c(cc2[N+](=O)[O-])C(=O)NC3=O)cc1` in this work.
An IC50 [1] of over 100 µM and an IC50 [2] of over 100 µM were found for `O=C(Cc1cc2c(cc1[N+](=O)[O-])C(=O)N(Cc1ccccc1)C2=O)c1cccs1` in this work.
